The source of these data is patent US20220241227A1, “COMPOSITIONS COMPRISING HDAC INHIBITORS AND RETINOIDS” (The Regents of The University of California, priority 2019, published 2022).

Where two headings read alike, the source gives them in different places.

The test system of data set [1] is miR-22. Briefly: miR-22 induction in HCT116 cells. It is filed as cell-based. Conditions: RA 10 μM, SAHA 5 μM, butyrate 5 mM, propionate 10 mM, valerate 10 mM.
Description: Mean±SD, *p<0.05; **p<0.01; ***p<0.0001 vs. DMSO control, #p<0.05 vs. single agent treatment.
Data set [2] relates to colon tumors in xenograft models. Conditions: combination: RA 0.025 mg/g and butyrate 1.2 mg/g, intraperitoneal, 5 times/week, 2 weeks; cited from earlier work.
Another data set concerns HDAC1, HDAC4, and SIRT1. The note with it: liver cancer Huh7 and colon cancer HCT116 cells, published data; cited from earlier work.
Data set [3] relates to miR-22. Conditions: published data, cells not given; cited from earlier work.
A further data set deals with Swiss mice. The note with it: oral; cited from earlier work.
The test system of another data set is RARβ. Briefly: RARβ mRNA and protein levels in HCT116 cells. It is filed as cell-based. Conditions: 48 hrs, RA 10 μM, butyrate 5 mM, SAHA 5 μM.

On to `CC(=O)O` [acetate], for which, in the data set with miR-22 [1], the miR-22 induction result is “unable to induce miR-22”.
Turning to “miR-22: tumor suppressor microRNA, SEQ ID NO:1 (AAGCUGCCAGUUGAAGAACUGU; listed as RNA, chemistry not fully specified; listed as Homo sapiens)”, in data set [2], the “treatment of colon tumors in xenograft models” value is “effective in treating colon tumors”. In the data set on HDAC1, HDAC4, and SIRT1, the “HDAC1, HDAC4, and SIRT1 levels” value is given as “reduced”.
`O=C(CCCCCCC(=O)Nc1ccccc1)NO` [SAHA, suberanilohydroxamic acid]: the miR-22 induction entry in the data set on miR-22 [1] was “induced”; in the data set on miR-22 [3] it was “induces miR-22”.
Turning to `CCC(=O)O` [propionate], the miR-22 induction entry in the data set with miR-22 [1] is on record as “induced”; in the data set with miR-22 [3], “induce miR-22”.
Take `CCCCC(=O)O` [valerate]: the miR-22 induction result is recorded as “induced” with miR-22 [1] and “induce miR-22” with miR-22 [3].
For the compound `CC1=C(/C=C/C(C)=C/C=C/C(C)=C/C(=O)O)C(C)(C)CCC1` [RA, all-trans retinoic acid], the miR-22 induction entry in the data set on miR-22 [1] was “induced”. For the same compound, the LD50 in the data set with Swiss mice is recorded as 1.1 mg/g.
For “EGF: promotes growth and does not has HDAC inhibitory effect (NSDSECPLSHDGYCLHDGVCMYIEALDKYACNCVVGYIGERCQYRDLKWWELR; Epidermal growth factor; UniProt P01133 971-1023, looked up)”, the “RARβ expression (mRNA and protein)” value in the data set on RARβ was “did not induce RARβ”.
Consider `O=CO` [formate], for which, in the data set with miR-22 [1], the miR-22 induction entry is listed as “unable to induce miR-22”.
